Data reported in PubChem BioAssay (NCI).
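96-well plates; 48 h exposure; 5 concentrations. Endpoints by linear interpolation between flanking doses. Not reached: highest tested concentration assigned. GI50: concentration for 50% inhibition of growth. TGI: total growth inhibition.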

Columns and labels:
Experiment in all cases: DTP human tumour cell line panel, 48 h
TK-10 renal = system: TK-10 renal
NCI/ADR-RES ovarian = system: NCI/ADR-RES ovarian
RXF 393 renal = system: RXF 393 renal
T-47D breast = system: T-47D breast
IGROV1 ovarian = system: IGROV1 ovarian
DU-145 prostate = system: DU-145 prostate
RPMI-8226 leukemia = system: RPMI-8226 leukemia
HS 578T breast = system: HS 578T breast
NCI-H226 lung = system: NCI-H226 lung
UACC-257 melanoma = system: UACC-257 melanoma

SMILES	GI50 (TK-10 renal)	TGI (TK-10 renal)	GI50 (NCI/ADR-RES ovarian)	TGI (NCI/ADR-RES ovarian)	GI50 (RXF 393 renal)	TGI (RXF 393 renal)	GI50 (T-47D breast)	TGI (T-47D breast)	GI50 (IGROV1 ovarian)	TGI (IGROV1 ovarian)	GI50 (DU-145 prostate)	TGI (DU-145 prostate)	GI50 (RPMI-8226 leukemia)	TGI (RPMI-8226 leukemia)	GI50 (HS 578T breast)	TGI (HS 578T breast)	GI50 (NCI-H226 lung)	TGI (NCI-H226 lung)	TGI (UACC-257 melanoma)
CC(C)=CCCC(C)c1ccc(C)c2c1OCN(CC1CCNCC1)C2 (stereo not given)	14.4 µM	29.3 µM	16.8 µM	34.8 µM	9.2 µM	21.7 µM	15.2 µM	33.2 µM	16.6 µM	32.2 µM	16.4 µM	32.2 µM	7.25 µM	32.6 µM	13.3 µM	29.9 µM	17.7 µM	33.8 µM	
O=[N+]([O-])c1cccc(/C=N\NS(=O)(=O)c2ccc(Cl)cc2)c1O		> 100 µM				> 100 µM				> 100 µM				> 100 µM					> 100 µM
COc1cc2c(cc1OCCCOc1cc3c(cc1OC)C(=O)N1C[C@H](F)C[C@H]1C=N3)N=C[C@@H]1C[C@@H](F)CN1C2=O	15 µM	28.2 µM	11.9 µM	26 µM	2.4 µM	7.6 µM	15.9 µM	58 µM	1.89 µM	5.88 µM	3.44 µM	14.7 µM	2.01 µM	5.79 µM					
CC[C@@H]1OC2(C)CC(S(=O)(=O)c3ccccc3O)CC1O2 (stereo not given in full)						> 100 µM				> 100 µM				> 100 µM				> 100 µM	> 100 µM
COC(=O)c1s/c(=N\C(=S)N(C)C)n(-c2ccccc2)c1C(=O)OC		> 100 µM				> 100 µM				> 100 µM				> 100 µM				> 100 µM	> 100 µM
CCN(CC)CC(O)CNc1ccc(NCC2CO2)c2c1C(=O)c1ccccc1C2=O (stereo not given)		7.15 µM		0.815 µM		0.953 µM			0.657 µM	5.79 µM		5.04 µM		5.35 µM		24.1 µM	0.958 µM	3.21 µM	4.04 µM
Cc1c(NC(=O)C(C)(C)Br)c(=O)oc2c(C)c3occc(=O)c3cc12		> 100 µM				> 100 µM				> 100 µM				> 100 µM				71.9 µM	> 100 µM
O=C(Nc1cc(Cl)c(Cl)cc1Cl)C(=O)C1C=CCS1(=O)=O (stereo not given)		> 100 µM				> 100 µM				> 100 µM				> 100 µM				> 100 µM	> 100 µM
COc1ccc(NC(=O)C(=O)C(C(=O)c2ccccc2)C2OC(=O)c3ccccc32)c([N+](=O)[O-])c1 (stereo not given)		> 100 µM				> 100 µM				> 100 µM				> 100 µM				> 100 µM	> 100 µM
CC1C[C@@]2(c3ccccc3)C(=O)CCC[C@H]2N1 (stereo not given in full)		> 100 µM				> 100 µM				> 100 µM								> 100 µM	> 100 µM
C=C1C(=O)O[C@H]2[C@H]1CC/C(CNC(=O)c1cc3cc(OC)ccc3[nH]1)=C\CC[C@@]1(C)O[C@@H]21	1.88 µM	4.61 µM	6.07 µM	23.7 µM	1.17 µM	2.61 µM	1.47 µM	4.35 µM	2.04 µM	5.94 µM	1.21 µM	2.78 µM	1.58 µM	4.39 µM	2.88 µM	11.8 µM	1.71 µM	4.6 µM	
